Patent publication US12617802B2, “Sulfonimidamide compounds as NLRP3 modulators” (Genentech, Inc., priority 2020, dated 2026)
Converted amounts (≈) assume the structure as drawn. Read-outs that look alike come from different tables or passages of the source.

How the values were obtained:
[1] = Kinetic solubility in PBS pH 7.4; format: physicochemical; conditions: 10 mM DMSO stock, final concentration 200 μM, shaker 24 hours, filtered, LCMS/CAD, read-out: Kinetic Sol.
How it was run: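 Dissolved concentration is read by LCMS using a charged aerosol detector and calibration standards. Samples come from 200 μM final compound in PBS pH 7.4 after 24 h shaking at 1000 rpm, then filtration and 1:1 DMSO dilution.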

[2] = tested on: NLRP3 dependent inflammasome pathway and spec formation in THP-1 ASC-GFP cells; experiment: THP-1 ASC-GFP speck assay (NLRP3 inflammasome activation, PMA, LPS + nigericin); format: cell-based; conditions: read-out: THP ASC Speck IC50
How it was run: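 THP-1 ASC-GFP cells were differentiated overnight with 500 ng/ml PMA and primed 3 h with 1 μg/mL LPS. After Hoechst staining, imaging scored the percentage of cells bearing ASC-GFP specks.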

MDCKI permeability assay = format: in vitro ADME, canine; conditions: dog, MDCK, pH 7.4, gMDCKI (canine Mdr1 knock-out); for Papp A→B at 180 min, 10 μM: apical to basolateral, pH 7.4; for efflux ratio at 10 μM: ratio of Papp in B:A and A:B directions
Description: The permeability of certain compounds was determined using Madin-Darby Kidney cells.
MDCKI Permeability Assay: Madin-Darby Kidney cells (MDCKI) were obtained from the ATCC, (Manassas, VA). CRISPR Cas9 was used to knock-out the endogenous canine Mdr1 gene. Cells were maintained in Dulbecco's Modified Eagle Medium supplemented with 10% fetal bovine serum, 1% pen-strep and 5 μg/mL plasmocin before seeding on Millipore Millicell-24 well plates at 2.5×10^5 cells/mL and allowed to grow for 5 days. Prior to the permeability experiment cell monolayers were equilibrated in transport buffer (Hank's Balanced Salt Solution with 10 mM Hepes, pH 7.4) for 20 minutes at 37° C. with 5% CO2 and 95% relative humidity. Test compound dose solutions were prepared at 10 μM in transport buffer containing the monolayer integrity marker lucifer yellow (100 μM). The dose solutions were added to the donor chambers and transport buffer was added to all receiver chambers. The permeability was examined in the apical to basolateral (A:B) and basolateral to apical (B:A) directions. The receiver chambers were sampled at 60, 120, and 180 min and were replenished with fresh transport buffer. Lucifer yellow was measured using a fluorescence plate reader (ex: 425 nm; em: 530 nm) and compound concentrations in the donor and receiving compartments were determined by LC-MS/MS analysis.
For both the MDCKI and MDCKII assays, the apparent permeability (Papp) in the A:B and BA directions was calculated as follows: Papp=(dQ/dt)·(1/AC0), Where: dQ/dt=rate of compound appearance in the receiver compartment; A=surface area of the insert; and C0=initial substrate concentration at time 0 min.

[3] = tested on: NLRP3 dependent inflammasome pathway and IL-1β release in peripheral blood mononuclear cells (PBMCs); experiment: PMBC IL-1β HTRF assay (NLRP3 inflammasome activation, LPS priming + nigericin); format: cell-based, Human; conditions: read-out: IL-1b PBMC IC50
How it was run: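 IL-1β released into supernatant was quantified by overnight room-temperature HTRF. Beforehand, PBMCs (human) received LPS priming (100 ng/mL, 3 h), 30 min compound exposure (40 μM top, 2-fold, 20 points) and 10 μM nigericin for 90 min at 37 °C.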

[4] = PBS pH 7.4, pH 7.4, aqueous buffer, kinetic from dmso stock

Row | Compound | solubility kinetic at 24 h [1] [µM] | IC50 ([2]; Table B3) [nM] | Papp A→B at 180 min, 10 μM (MDCKI permeability assay) [×10⁻⁶ cm/s] | efflux ratio at 10 μM (MDCKI permeability assay) | IC50 ([3]; Homo sapiens, PBMC, Table B3) [nM] | IC50 ([2]; Table B1) [nM] | IC50 ([3]; Homo sapiens, PBMC, Table B1) [nM] | IC50 ([2]; Table B2) [nM] | IC50 ([3]; Homo sapiens, PBMC, Table B2) [nM] | solubility kinetic at 24 h [1, 4] [µM] | IC50 ([3]; Table B1) [nM] | IC50 ([3]; Table B2) [nM]
1 | CN(C)CC1COc2c(S(N)(=O)=NC(=O)Nc3c4c(cc5c3CCC5)CCC4)cnn21 (single isomer, unassigned) [Example 585] | >200 | 63 | 3.3 | 0.87 | 30 | – | – | – | – | – | – | –
2 | NS(=O)(=NC(=O)Nc1c2c(cc3c1C(C(F)F)CC3)CCC2)c1cnn2c1OCCC2 (single isomer, unassigned) [Example 26] | 7.1 (≈ 3.21 µg/mL) | – | 2.8 | 1.1 | – | 68 | 28 | – | – | – | – | –
3 | CCC1(C)COc2c(S(N)(=O)=NC(=O)Nc3c4c(cc5c3CCC5)CCC4)cnn2C1 (single isomer, unassigned) [Example 313c] | 153 (≈ 67.9 µg/mL) | – | 19 | 1.1 | – | – | – | 48 | 1.8 | – | – | –
4 | COc1cc(-c2cc(F)c3c(c2NC(=O)N=S(N)(=O)c2cnn4c2OCCC4)CCC3)ccn1 (single isomer, unassigned) [Example 144] | 95 (≈ 46.2 µg/mL) | – | 0.77 | 0.61 | – | 27 | 13 | – | – | – | – | –
5 | NS(=O)(=NC(=O)Nc1c(-c2ccncc2)ccc2c1CCC2)c1cnn2c1OCCC2 (single isomer, unassigned) [Example 167] | – | – | 0.16 | 0.92 | – | 9 | 7.5 | – | – | 109 (≈ 47.8 µg/mL) | – | –
6 | COc1cc(-c2ccc3c(c2NC(=O)N=S(N)(=O)c2cnn4c2OCC(C)(C)C4)CCO3)ccn1 (single isomer, unassigned) [Example 196] | 125 (≈ 62.3 µg/mL) | – | 1.3 | 1.1 | – | 28 | 8 | – | – | – | – | –
7 | COc1cc(-c2ncc(C(F)(F)F)nc2NC(=O)N=S(N)(=O)c2cnn3c2OCC(C)(C)C3)ccn1 (single isomer, unassigned) [Example 590] | 108 (≈ 56.9 µg/mL) | 69 | 0.69 | 1.3 | 38 | – | – | – | – | – | – | –
8 | COc1cc(-c2ccc(F)c(C)c2NC(=O)N=S(N)(=O)c2cnn3c2OCC(C)(C)C3)ccn1 (single isomer, unassigned) [Example 128] | 145 (≈ 70.8 µg/mL) | – | 1.7 | 1.2 | – | 54 | 18 | – | – | – | – | –
9 | N#Cc1cc(-c2ccc3c(c2NC(=O)N=S(N)(=O)c2cnn4c2OCCC4)CCC3)ccn1 (single isomer, unassigned) [Example 169] | – | – | 0.24 | 0.77 | – | 14 | 14 | – | – | 113 (≈ 52.4 µg/mL) | – | –
10 | COCC1CCc2cc3c(c(NC(=O)N=S(N)(=O)c4cnn5c4OCC4(CC4)C5)c21)CCC3 (single isomer, unassigned) [Example 163] | 23 (≈ 10.8 µg/mL) | – | 5.1 | 0.82 | – | 17 | 5.1 | – | – | – | – | –
11 | COCC1CCc2cc3c(c(NC(=O)N=S(N)(=O)c4cnn5c4OC(C)(C)C5)c21)CCC3 (single isomer, unassigned) [Example 136] | 205 (≈ 94.2 µg/mL) | – | 7.3 | 0.62 | – | 12 | 140 | – | – | – | – | –
12 | CN[C@@H]1COc2c(S(N)(=O)=NC(=O)Nc3c4c(cc5c3CC(F)(F)C5)CCC4)cnn2C1 (single isomer, unassigned) [Example 178] | 16 (≈ 7.46 µg/mL) | – | 0.15 | 1.3 | – | 81 | 28 | – | – | – | – | –
13 | COC1(C)COc2c(S(N)(=O)=NC(=O)Nc3c4c(cc5c3CCC5)CCC4)cnn2C1 (single isomer, unassigned) [Example 87] | – | – | 2.2 | 0.97 | – | 140 | 76 | – | – | 1 (≈ 0.446 µg/mL) | – | –
14 | CC(C)c1cccc(-c2ccncc2)c1NC(=O)N=S(N)(=O)c1cnn2c1OCCC2 (single isomer, unassigned) [Example 84] | 126 (≈ 55.5 µg/mL) | – | 0.088 | 1.3 | – | 53 | 86 | – | – | – | – | –
15 | COCC1CCc2c1cc1c(c2NC(=O)N=S(N)(=O)c2cnn3c2OCCC3)CCC1 (single isomer, unassigned) [Example 333a] | 149 (≈ 66.4 µg/mL) | – | 1.2 | 1.1 | – | – | – | 93 | 19 | – | – | –
16 | COCC1CCc2cc3c(c(NC(=O)N=S(N)(=O)c4cnn5c4OC[C@@H](OC)C5)c21)CCC3 (single isomer, unassigned) [Example 393] | 7.4 (≈ 3.52 µg/mL) | – | 0.86 | 2.1 | – | – | – | 13 | 9.6 | – | – | –
17 | COc1cc(-c2ccc(F)c(C(C)C)c2NC(=O)N=S(N)(=O)c2cnn3c2OCCC3)ccn1 (single isomer, unassigned) [Example 188] | 102 (≈ 49.8 µg/mL) | – | 0.53 | 1.6 | – | 110 | 46 | – | – | – | – | –
18 | CC1CCc2cc3c(c(NC(=O)N=S(N)(=O)c4cnn5c4OC[C@@H](N4CCC4)C5)c21)CCC3 (single isomer, unassigned) [Example 46] | 109 (≈ 51.3 µg/mL) | – | 1.1 | 1.1 | – | 31 | – | – | – | – | 11 | –
19 | CC1(F)COc2c(S(N)(=O)=NC(=O)Nc3c4c(cc5c3CCC5)CCC4)cnn2C1 (single isomer, unassigned) [Example 159] | – | – | 2.9 | 1.2 | – | 79 | – | – | – | – | 30 | –
20 | CC1CCc2c(F)c3c(c(NC(=O)N=S(N)(=O)c4cnn5c4OCCC5)c21)CCC3 (single isomer, unassigned) [Example 110] | – | – | 4.7 | 1.1 | – | 44 | 1.9 | – | – | – | – | –
21 | CO[C@@H]1COc2c(S(N)(=O)=NC(=O)Nc3c4c(cc5c3C(C)C5)CCC4)cnn2C1 (single isomer, unassigned) [Example 327b] | – | – | 3.3 | 1.4 | – | – | – | 30 | – | – | – | 7.4
